In patent publication US9593110B2, “Neprilysin inhibitors” (Theravence Biopharma R&D IP, LLC, priority 2014, dated 2017) one finds Ki and pKi data, which are given here for 30 compounds.

By Ki is commonly meant a dissociation constant, usually derived from enzyme kinetics or from competition with a known ligand.

The test deals with human NEP (Homo sapiens (Human), UniProt P08473). The test is described as follows: In vitro enzyme inhibition assay at human NEP. The conditions noted are these: recombinant human NEP, fluorogenic peptide substrate, 37° C.; for Ki: pKi.
Sequence of human NEP (P08473 52-750): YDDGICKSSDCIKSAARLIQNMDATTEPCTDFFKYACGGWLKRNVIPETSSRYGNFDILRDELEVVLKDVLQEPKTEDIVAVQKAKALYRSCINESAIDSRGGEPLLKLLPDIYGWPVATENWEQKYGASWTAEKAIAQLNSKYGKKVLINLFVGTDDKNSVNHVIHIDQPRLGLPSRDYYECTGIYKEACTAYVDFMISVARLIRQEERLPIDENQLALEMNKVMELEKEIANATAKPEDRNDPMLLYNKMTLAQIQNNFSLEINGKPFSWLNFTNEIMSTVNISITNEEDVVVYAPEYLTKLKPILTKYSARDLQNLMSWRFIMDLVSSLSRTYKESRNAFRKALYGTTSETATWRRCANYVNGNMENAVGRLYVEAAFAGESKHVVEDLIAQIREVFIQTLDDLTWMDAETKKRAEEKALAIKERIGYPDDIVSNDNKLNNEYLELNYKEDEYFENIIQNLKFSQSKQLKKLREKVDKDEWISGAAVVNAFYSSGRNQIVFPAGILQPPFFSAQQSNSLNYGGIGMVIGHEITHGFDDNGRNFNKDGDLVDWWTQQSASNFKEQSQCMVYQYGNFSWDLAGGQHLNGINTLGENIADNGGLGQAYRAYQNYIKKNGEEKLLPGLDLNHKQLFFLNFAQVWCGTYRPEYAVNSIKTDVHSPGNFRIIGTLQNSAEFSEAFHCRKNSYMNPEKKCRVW

`COC[C@@H]1CCN1C[C@H](C[C@@H](Cc1ccc(-c2cc(Cl)ccc2F)cc1)NC(=O)c1c[nH]nn1)C(=O)O` [Example 103d, (2S,4S)-5-(5′-Chloro-2′-fluorobiphenyl-4-yl)-2-((S)-2-methoxymethylazetidin-1-ylmethyl)-4-[(3H-[1,2,3]triazole-4-carbonyl)amino]pentanoic Acid]: the Ki is ≤ 1 nM.

On to `CCOC(=O)[C@H](N)C[C@@H](Cc1ccc(-c2cc(Cl)ccc2F)cc1)NC(=O)c1cc(O)no1` [Example 16-11, (2R,4R)-2-Amino-5-(5′-chloro-2′-fluorobiphenyl-4-yl)-4-[(3-hydroxyisoxazole-5-carbonyl)amino]pentanoic acid ethyl ester], for which the Ki lay in the range of 3.16 to 10 nM.

Turning to `O=C(N[C@H](Cc1ccc(-c2cc(Cl)ccc2F)cc1)C[C@@H](CN1CC(CO)(CO)C1)C(=O)O)c1cnn[nH]1` [Example 92b, (2S,4S)-2-(3,3-Bis-hydroxymethylazetidin-1-ylmethyl)-5-(5′-chloro-2′-fluorobiphenyl-4-yl)-4-[(3H-[1,2,3]triazole-4-carbonyl)amino]pentanoic Acid], the Ki was ≤ 1 nM.

On to `O=C(N[C@H](Cc1ccc(-c2cc(Cl)ccc2F)cc1)C[C@@H](Cc1noc(=O)[nH]1)C(=O)O)c1cnn[nH]1` [Example 66, (2S,4S)-5-(5′-Chloro-2′-fluorobiphenyl-4-yl)-2-(5-oxo-4,5-dihydro-[1,2,4]oxadiazol-3-ylmethyl)-4-[(3H-[1,2,3]triazole-4-carbonyl)amino]pentanoic Acid], for which the inhibition constant (Ki) was in the range of 1.26 to 3.16 nM.

As for `O=C(N[C@H](Cc1ccc(-c2cc(Cl)ccc2F)cc1)CC(C(=O)O)c1ccccn1)c1cnn[nH]1` (stereo in doubt) [Example 76, (S)-5-(5′-Chloro-2′-fluorobiphenyl-4-yl)-2-pyridin-2-yl-4-[(3H-[1,2,3]triazole-4-carbonyl)amino]pentanoic Acid], the Ki lay in the range of 12.6 to 31.6 nM.

For `O=C(N[C@H](Cc1ccc(-c2cc(Cl)ccc2F)cc1)C[C@@H](CN1CC(O)C1)C(=O)O)c1cnn[nH]1` [Example 83b, (2S,4S)-5-(5′-Chloro-2′-fluorobiphenyl-4-yl)-2-(3-hydroxyazetidin-1-ylmethyl)-4-[(3H-[1,2,3]triazole-4-carbonyl)amino]pentanoic Acid], the Ki was ≤ 1 nM.

For `COC(=O)N[C@H](C[C@@H](Cc1ccc(-c2ccccc2)cc1)NC(=O)c1c[nH]nn1)C(=O)O` [Example 31, (2R,4R)-5-Biphenyl-4-yl-2-methoxycarbonylamino-4-[(1H-[1,2,3]triazole-4-carbonyl)amino]pentanoic Acid], the inhibition constant Ki fell in the range of 1.26 to 3.16 nM.

As to `O=C(N[C@H](Cc1ccc(-c2cc(Cl)ccc2F)cc1)C[C@@H](CNCCO)C(=O)O)c1cnn[nH]1` (single isomer, unassigned) [Example 48b], the inhibition constant Ki lay within 1.26 to 3.16 nM.

Regarding `O=C(N[C@H](Cc1ccc(-c2cc(Cl)ccc2F)cc1)C[C@@H](CNCCO)C(=O)O)c1cnn[nH]1` (single isomer, unassigned) [Example 48a], the inhibition constant (Ki) is ≤ 1 nM.

Take `CC(C)c1coc(C(=O)N[C@H](Cc2ccc(-c3cc(Cl)ccc3F)cc2Cl)C[C@H](N)C(=O)O)n1` [Example 18-1, (2S,4R)-2-Amino-5-(3,5′-dichloro-2′-fluorobiphenyl-4-yl)-4-[(4-isopropyloxazole-2-carbonyl)amino]pentanoic acid]: the Ki lay in the range of 3.16 to 10 nM.

For `CCC(=O)N[C@H](C[C@@H](Cc1ccc(-c2ccccc2)cc1)NC(=O)c1c[nH]nn1)C(=O)O` [Example 27, (2R,4R)-5-Biphenyl-4-yl-2-propionylamino-4-[(1H-[1,2,3]triazole-4-carbonyl)amino]pentanoic Acid], the inhibition constant (Ki) lay within 3.16 to 10 nM.

As to `COCCN[C@H](C[C@@H](Cc1ccc(-c2cc(Cl)ccc2F)cc1)NC(=O)c1c[nH]nn1)C(=O)O` [Example 98a, (2R,4R)-5-(5′-Chloro-2′-fluorobiphenyl-4-yl)-2-(2-methoxyethylamino)-4-[(1H-[1,2,3]triazole-4-carbonyl)amino]pentanoic Acid], the inhibitory constant (Ki) was ≤ 1 nM.

Consider `CCOC[C@H](C[C@@H](Cc1ccc(-c2cc(Cl)ccc2F)cc1)NC(=O)c1c[nH]c(=O)o1)C(=O)O` [Example 7-9, (2S,4S)-5-(5′-Chloro-2′-fluorobiphenyl-4-yl)-2-ethoxymethyl-4-[(2-oxo-2,3-dihydro-oxazole-5-carbonyl)amino]pentanoic acid], for which the pKi result is on record as “≧9.0”.

Take `COCCNC[C@H](C[C@@H](Cc1ccc(-c2cc(Cl)ccc2F)cc1)NC(=O)c1cnn[nH]1)C(=O)O` (single isomer, unassigned) [Example 49a]: the Ki is ≤ 1 nM.

Take `CCCc1nc(C(=O)N[C@H](Cc2ccc(-c3cc(Cl)ccc3F)cc2)C[C@@H](N)C(=O)O)co1` [Example 16-6, (2R,4R)-2-Amino-5-(5′-chloro-2′-fluorobiphenyl-4-yl)-4-[(2-propyloxazole-4-carbonyl)-amino]pentanoic acid]: the Ki lay in the range of 3.16 to 10 nM.

For the compound `Cc1cc(C(=O)N[C@H](Cc2ccc(-c3cc(Cl)ccc3F)cc2)C[C@@H](CN)C(=O)O)sn1` [Example 21-6, (2S,4S)-2-Aminomethyl-5-(5′-chloro-2′-fluorobiphenyl-4-yl)-4-[(3-methylisothiazole-5-carbonyl)amino]pentanoic acid], the Ki is 1.26 to 3.16 nM.

For the compound `COC[C@H](C[C@@H](Cc1ccc(-c2cc(Cl)ccc2F)cc1)NC(=O)c1ccc(C(F)(F)F)cn1)C(=O)O` [Example 2-14, (2S,4S)-5-(5′-Chloro-2′-fluorobiphenyl-4-yl)-2-methoxymethyl-4-[(5-trifluoromethylpyridine-2-carbonyl)amino]pentanoic acid], the pKi entry is recorded as “≧9.0”.

In the case of `N[C@H](C[C@@H](Cc1ccc(-c2cc(Cl)ccc2F)cc1Cl)NC(=O)c1cc(C2CC2)on1)C(=O)O` [Example 18-9, (2R,4R)-2-Amino-4-[(5-cyclopropyl-isoxazole-3-carbonyl)-amino]-5-(3,5′-dichloro-2′-fluorobiphenyl-4-yl)pentanoic acid], the inhibition constant Ki was in the range of 3.16 to 10 nM.

Take `COC(=O)N[C@H](C(=O)N[C@H](C[C@@H](Cc1ccc(-c2cc(Cl)ccc2F)cc1)NC(=O)c1c[nH]nn1)C(=O)O)C(C)C` [Example 46, (2R,4R)-5-(5′-Chloro-2′-fluorobiphenyl-4-yl)-2-((S)-2-methoxycarbonylamino-3-methylbutyrylamino)-4-[(1H-[1,2,3]triazole-4-carbonyl)amino]pentanoic Acid]: the Ki lay in the range of 1.26 to 3.16 nM.

On to `Cc1cnc(C(=O)N[C@H](Cc2ccc(-c3cc(Cl)ccc3F)cc2)C[C@@H](CNC(=O)CN)C(=O)O)o1` [Example 43, (2S,4S)-2-[(2-Aminoacetylamino)methyl]-5-(5′-chloro-2′-fluorobiphenyl-4-yl)-4-[(5-methyloxazole-2-carbonyl)amino]pentanoic Acid], for which the inhibitory constant (Ki) is ≤ 1 nM.

Consider `C[C@H](N)C(=O)N[C@H](C[C@@H](Cc1ccc(-c2cc(Cl)ccc2F)cc1)NC(=O)c1cnn[nH]1)C(=O)O` [Example 37-1, (2R,4R)-2-((S)-2-Aminopropionylamino)-5-(5′-chloro-2′-fluorobiphenyl-4-yl)-4-[(3H-[1,2,3]triazole-4-carbonyl)amino]pentanoic acid], for which the pKi result is “≧9.0”.

With `CCOC[C@H](C[C@@H](Cc1ccc(-c2cc(Cl)ccc2F)cc1)NC(=O)c1cc(C(C)=O)n[nH]1)C(=O)O` [Example 7-3, (2S,4S)-4-[(5-Acetyl-2H-pyrazole-3-carbonyl)-amino]-5-(5′-chloro-2′-fluorobiphenyl-4-yl)-2-ethoxymethylpentanoic acid], the pKi entry is reported as “≧9.0”.

`NC(=O)C[C@H](C[C@@H](Cc1ccc(-c2ccccc2)cc1)NC(=O)c1cnn[nH]1)C(=O)O` [Example 53, (2S,4S)-5-Biphenyl-4-yl-2-carbamoylmethyl-4-[(3H-[1,2,3]triazole-4-carbonyl)amino]pentanoic Acid]: the pKi result is recorded as “≧9.0”.

As for `CCOC[C@H](C[C@@H](Cc1ccc(-c2cccc(Cl)c2)cc1)NC(=O)c1c[nH]nn1)C(=O)O` [Example 9-1, (2S,4S)-5-(3′-Chlorobiphenyl-4-yl)-2-ethoxymethyl-4-[(1H-[1,2,3]triazole-4-carbonyl)amino]pentanoic acid], the pKi entry was “≧9.0”.

In the case of `CCOC[C@H](C[C@@H](Cc1ccc(-c2cc(Cl)ccc2F)cc1)NC(=O)c1n[nH]c(C(F)(F)F)n1)C(=O)O` [Example 6, (2S,4S)-5-(5′-Chloro-2′-fluorobiphenyl-4-yl)-2-ethoxymethyl-4-[(5-trifluoromethyl-1H-[1,2,4]triazole-3-carbonyl)amino]pentanoic Acid], the pKi result is “≧9.0”.

Take `Cc1cnc(C(=O)N[C@H](Cc2ccc(-c3cc(Cl)ccc3F)cc2)C[C@@H](CNC(=O)C(C)(C)N)C(=O)O)o1` [Example 45, (2S,4S)-2-[(2-Amino-2-methylpropionylamino)methyl]-5-(5′-chloro-2′-fluorobiphenyl-4-yl)-4-[(5-methyloxazole-2-carbonyl)-amino]pentanoic Acid]: the Ki was ≤ 1 nM.

In the case of `CCOC[C@H](C[C@@H](Cc1ccc(-c2cccc(Cl)c2)cc1)NC(=O)c1noc(=O)[nH]1)C(=O)O` [Example 9-5, (2S,4S)-5-(3′-Chlorobiphenyl-4-yl)-2-ethoxymethyl-4-[(5-oxo-4,5-dihydro-[1,2,4]oxadiazole-3-carbonyl)amino]pentanoic acid], the pKi result is given as “≧9.0”.

In the case of `NC[C@H](C[C@@H](Cc1ccc(-c2cc(Cl)ccc2F)cc1)NC(=O)c1cnsc1)C(=O)O` [Example 21-7, (2S,4S)-2-Aminomethyl-5-(5′-chloro-2′-fluorobiphenyl-4-yl)-4-[(isothiazole-4-carbonyl)amino]pentanoic acid], the inhibitory constant (Ki) is 1.26 to 3.16 nM.

In the case of `O=C(N[C@H](Cc1ccc(-c2cc(Cl)ccc2F)cc1)C[C@@H](CNCC(F)F)C(=O)O)c1cnn[nH]1` [Example 82a, (2S,4S)-5-(5′-Chloro-2′-fluorobiphenyl-4-yl)-2-[(2,2-difluoroethylamino)methyl]-4-[(3H-[1,2,3]triazole-4-carbonyl)amino]pentanoic Acid], the inhibition constant Ki was ≤ 1 nM.

Take `COCCN(C)C[C@H](C[C@@H](Cc1ccc(-c2cc(Cl)ccc2F)cc1)NC(=O)c1cnn[nH]1)C(=O)O` [Example 85a, (2S,4S)-5-(5′-Chloro-2′-fluorobiphenyl-4-yl)-2-{[(2-methoxyethyl)methylamino]methyl}-4-[(3H-[1,2,3]triazole-4-carbonyl)amino]pentanoic Acid]: the Ki was ≤ 1 nM.
